One data set relates to sciatic nerve. Briefly: Viability of cryopreserved nerve grafts (Annexin-V staining, FACS). To be noted: 100 mmolar solution 1 hour; −30° C. 72 hours. The format is cell-based, rats.
Data set [1] is described as follows: Abrasion stability and traction work load of coated balloon catheters. The data set is classed as physicochemical.
Experimental: Balloon catheters were coated by means of the Langmuir-Schaefer procedure where the balloon segment was aligned longitudinally and coaxial to the solution surface, dipping into the liquid for approx. 1 mm over the entire length. Then the catheter was slowly rotated around its axis 5 times. Phospholipids were dissolved at a concentration of 3 mmol in an ion-free aqueous solution at 50° C. The solution was cooled and given to the coating solution then. In case of incomplete dissolution of the phospholipids or if they separated when cooled, DMSO was added at a concentration of up to 20 vol.-%, preferably up to 10 vol.-%. After coating, the catheters were vacuum dried for 8 hours in order to remove residual solvent.
The tubing was filled with a 10% human albumin solution at a temperature of 35° C. The cable system, which had previously been brought through the tubing was connected to the catheter tip and tracked outside the tubing by reversing pulleys, which allowed exactly vertically traction of the cable that was connected to a motorized winch. The winch was mounted on a digital precision balance. The catheters mounted in this manner were pulled through the tubing system and the weight changes measured by the balance, which represented the traction work load achieved for the passage of the catheter, was recorded continuously. These readings were integrated over time. The resultant values allow estimation of the total shear force that occurred during the passage of the catheter through the tubing system.
The abrasion or loss of coating layers was determined by weighing the catheter before and after coating as well as after the mechanical stability test in the tubing system as described above using a high precision balance.
Data set [2] concerns ovarian tissue strips. Briefly: Cryopreservation of ovarian tissue strips: intact follicles. Particulars: liquid nitrogen 14 days, cultured 14 days.
Experimental: (§1) Ovar ectomy was performed in female sheep; resected tissues were cut into 60 ovarian tissue strips. The ovarian strips were either cultured directly (n=4) or prepared with a usual solution for vitrification (VS group; Vitrification Kit, Sage, USA) or incubated with nitrated PLs (NPL group). For this purpose, the tissue strips were bathed in an equibrilation solution (ART-8025-A) which consisted of MOPS-buffered amino acids and gentamicin sulfate (10 mg/l), and 7.5% (v/v) of each DMSO and ethylene glycol and 12 mg/ml human serum albumin for 30 minutes. Thereafter the strips of the VS group were placed in the vitrification solution (ART-8025-B), which is a MOPS-buffered solution containing amino acids and gentamicin sulfate, that contain 15% (v/v) each DMSO and ethylenglycol, 12 mg/ml human albumin and 0.6 M sucrose. The strips of the NPL group were placed in a solution containing 25% (v/v) nitrated PL SNOPC or PNLPC in a PBS-buffered 1% DMSO solution containing 5% human albumin for 60 minutes. The treated tissue strips were then immersed into liquid nitrogen and kept here for 14 days. Then removal and warming of the tissue pieces was performed in AIM-V medium (Gibco, Invitrogen) in a sterile culture dish, first up to 5° C. within 20 minutes, then heated further in a water bath up to 37° C., within the following 60 minutes. The culture medium was replaced and specimens cultured for 14 days. After this, the tissue pieces were fixed, embedded in paraffin and cut, followed by histological examination. […] The total number of intact follicles in the control group was taken as a reference to the number of follicles in the cryopreserved groups.
(§2) The culture medium has been exchanged by every 2nd day; samples for hormone analysis were taken and frozen at that time. Determination of 17 β-estradiol and progesterone were performed with a radio-immuno assay (diagnostic systems laboratories, USA).
Data set [3] has as its system Murine macrophages (RAW 264.7).
Text: The survival rate and cytokine production of adhering macrophages were examined to evaluate the bio-passivating properties of various nitro-carboxylic acid containing phospholipids.
Templates made of glass were coated with nitro-carboxylic acid-containing and native phosphatidylcholines and with an admixture of 50% phosphatidylcholine and phosphatidyletholamine, as described in example 2. […] The glass slides were placed in Teflon bowl, uncoated slides served as control. Murine macrophages (RAW 264.7) were cultured to a cell density of 5×10^5. Cell suspensions were added to the culture dishes, so that macrophages could attach on the slides under standard culture conditions for 24 to 48 hours. […] The cell survival rate was investigated using an MTT assay.
In the next data set the test system is Human red blood cells. Briefly: Erythrocyte membrane stability (osmotic, mechanical, storage). Particulars: 30 mmol/l, incubated for an hour. The format is cell-based. On the procedure: The physico-chemical properties of cell membranes determine their strength of resistance to physical, chemical and immunological alterations. Human red blood cells and mast cells from mice dissolved in solutions of physiological NaCl containing the natural phospholipids SOPC and PLPC or the analogue nitrated phospholipids (1-stearoyl-2-(9-nitrooleoyl)-sn-PC (example P14) and 1-palmitoyl-2-(9-nitrolinoleoyl)-sn-PC) (example P7) at a concentration of 30 mmol/l were incubated for an hour in order to assess the effects of an up-take of phospholipids into the cell membranes with respect to resistance to external alterations. Similarly, cells incubated with mixtures of nitro-carboxylic acid (s)-containing phospholipids according to examples N2-N14, F, Q, S, O3-O6, P1-P3 and P6 were investigated.
For assessment of osmotic stability, cells were separated from serum by centrifugation first and then cleaned three times with physiological NaCl solution. […] After incubation for 30 minutes under the above described conditions, the tubes were centrifuged and an aliquot was taken for photometric measurement of hemoglobin by absorbance at a wavelength of 546 nm at a temperature of 30° C.
For the examinations of mechanical stability, erythrocytes were prepared according to the procedure above. […] Then, the samples were centrifuged and supernatants were analyzed as stated above. […]

The subject of a further data set is TRPV1, 2 and 4, TRPA1. Briefly: Inducible ion current of TRP receptors in Xenopus oocytes (voltage clamp). The format is cell-based, rat. To be noted: 50 mmol/l, 10 and 60 minutes. On the procedure:
An established in-vitro model of Xenopus oocytes (Dascal N, 1987 The use of Xenopus oocytes. CRC critical reviews in biochemistry 22, 317-387) was used to study the influence of incubation with PL on ion channels regulated by membrane receptors. Defolliculized oocytes were transfected with cRNA (rat) of TRPV1, 2 and 4, as well as of TRPA1, stored in tissue culture plates and incubated in culture medium (ND 96) at 15° C. under constant motion in the incubator for 7 to 10 days.
Induced leakage currents through activation of the TRP receptors was determined by means of double electrode voltage-clamp technique (Ahern G P, Brooks I M, Miyares R L &Wang X B, 2005, Extracellular cations sensitize and gate capsaicin receptor TRPV1 modulating pain signalling. J Neurosci 25, 5109-5116). Ooocytes were probed with borosilicate glass capillaries (Clark) and connected to a feedback amplifier (Gene clamp Amplifier, Axon instruments). The membrane potential of oocytes was clamped to −60 or −90 mV. The presence of a directive […] current was compared to non-transfected controls. The investigations were performed in a miniature organ bath in calcium-free buffered (Hepes, pH 7.3) NaCl solution. The TRPV1 receptor excitation was initiated by rapidly changing of the bath solution against a capsaicin solution (10 μmol). Results of non-pretreated oocytes were used for normative comparison of subsequent measurements of incubatesd cells. Investigations with incubated cells were carried out in the same way for oocytes transfected with the TRPV2, and TRPV4 and TRPA1 receptors, wherein the receptor agonists cannabidiol (10 μmol) and 4α-PDD (4α-phorbol 12,13-didecanoate, 50 μmol) and innamaldehyde (50 μmol) were used instead of capsaicin.

Data set [4] has as its system Cardiac muscle cells derived from neonatal rat heart. Briefly: Hypoxia of cardiac muscle cells (viability, mitochondrial NAD+). The data set is classed as cell-based. To be noted: for mitochondrial NAD+ content: hypoxia, baseline 5. On the procedure:
Cardiac muscle cells derived from neonatal rat heart (Nitobe J, et al, Reactive oxygene species regulate FLICE inhibitory protein and susceptibility to FAS-mediated apoptosis in cardiac myocytes. Cardiovasc RES 2003, 119-28). The heart muscle cells were cultured in Dulbecco/Eagle medium (DMEM) with 10% FCS added under standard conditions for two days. Incubation with the natural and nitrated phospholipids, as well as the hypoxia experiments were carried out as described above. Incubated cells were grown in culture medium under standard conditions for 24 hours. This is followed by a vitality staining as described above. […] The frozen cells were thawed up to -4° C. and homogenized for subsequent NAD^+ analyses. By means of differential centrifuge, pellets containing mitochondria were separated (Di Lisa, et al, 1993; Am. J. Physiol. 264, […]-[…]). The NAD^+ content was determined by fluoroscopy, and normalized to the protein content (Veloso, D., and […]., 1974;) Anal. Biochem., 449-450).

Data set [5] concerns the target Glycophorin A (GpA) peptides (Homo sapiens, UniProt P02724). To be noted: 10-50% (mol/mol) admixed to DSPC vesicles; versus native phospholipids.
Experimental: The change of the Frster resonance energy transfer (FRET) of fluorescence-labelled peptides with α helical trans-membrane structure in a double lipid layer can be used for determination of the concentration of monomeric and dimeric trans-membrane helices and for quantitative determination of helix-helix interactions.
FRET measurements were carried out with fluorescence-marked Glycophorin A (GpA) peptides. The transmembrane GpA forms dimers, whereby the energy transfer can be measured. 5-carboxyfluorescein and tetramethyl-6-carboxyrhodamine were used as chromophores.
Degree of dimerization of the model protein was measured in a direct comparison between native phospholipids and the corresponding phospholipids with a nitrated alkyl chain for the given concentrations of phospholipids (10-50%, mol/mol) admixed to the DSPC vesicles.
For determination of the dimerization, the peptides of FL GpAwt and TAMRA GpAwt were weighed and dissolved in TFE. The measurements were carried out on a fluorescence spectrometer of type Aminco Bowman series 2 (Thermo Spectronic).
Data set [6] relates to ovarian tissue strips. Briefly: Cryopreservation of ovarian tissue strips: 17 β-estradiol and progesterone (radio-immuno assay). The format is cell-based, sheep. Particulars: after cryopreservation and culture.
Experimental: as §1, §2
The test system of data set [7] is Heart muscle cells from rabbit hearts. Briefly: Cytosolic Ca2+ concentration in heart muscle cells (fluo-4 fluorescence). The format is cell-based. The procedure:
Heart muscle cells were taken from rabbit hearts according to a method described elsewhere (Shannon T R, Ginsburg K S, Bers D M. Quantitative assessment of the SRCa^2+ leak-load relationship. Circ Res. 2002; 91:594-600). The prepared cells were cultured for 72 hours.
The cytosolic Ca^2+ concentrations were determined with fluo-4 fluorescence. Therefore the cells were incubated with 10 μmol fluo-4 AM (1%) for 30 minutes and washed thereafter three times with PBS. The cells were stimulated in a Tryode solution on a platinum electrode with a frequency of 0.5 Hz over 20 cycles. Then the ambient medium was changed and an electrolyte-free colloidal solution was added. Determination of the Ca concentration was performed after each series of stimulation over 20 cycles. Calcium content was estimated by the use of confocal laser scanning microscopy (Olympus). At least 10 cells per experiment were evaluated in a post-systolic interval of 1000 ms. The measurements were repeated at least three times. β-adrenergic stimulation was performed with 250 nmol/L isoproterenol, which was given to the medium.

Another data set has as its system cortical neurons. Briefly: Hypoxia and reperfusion of cortical neurons (viability, LDH).
Data set [8] is described as follows: Tissue response to coated silicone implants in vivo after bleomycin. Also on record: species or system Wistar rats. To be noted: silicone cushions, subcutaneous, 7 to 90 days.
Experimental: Induction of fibrotic tissue production by connective tissue activation as a consequence of implantation of foreign material was examined in an in-vivo animal model. As implant materials, sterile silicone cushions having a diameter of 1 cm were used.
In male Wistar rats (190-240 g) that were fed and housed under identical conditions for one week, general anaesthesia was performed by intramuscular injection of 0.008 mL/100 g ketamine and 0.004 mL/100 g xylocaln chloride 2%. Then the back of the animals was shaved, sterilized and infiltrated with xylocalne chloride. A paravertebral incision was made on both sides with a length of 1.5 cm followed by preparation of the subcutaneous tissue, so that on both sides approx. 2×2 cm cavities were preformed. Hemostasis was achieved by cauterization, if necessary. Then balls of cotton saturated with Bleomycin (cell-pharm GmbH, Hannover, Germany: 1% in 0.9% NaCl solution) were inserted into the cavities for 3 minutes and then removed. Without rinsing the cavities, the implants coated with a nitrated phospholipid were inserted into the cavity on the left side and the implants coated with natural phospholipid into the cavity on the right side. Thereafter, a layer by layer wound closure was performed and a sterile adhesive bandage was applied.
The animals were kept according to standard conditions for 7, 14, 30, 60 and 90 days. At any study time endpoint, two animals were euthanized. After death the well visible and palpable implants were removed using en-block resection technique. The resected specimens were fixed and embedded in paraffin. Then they were cut in half and the liquid silicone was removed. The specimens were embedded again and cut into thin slices which were stained with H & E and Sirius red, and evaluated by light microscopy. Evaluation was done according to the following criteria:
A1: none; A2: occasional monocytic cells or lymphocytes; A3: moderate numbers or groups of monocytic cells or lymphocytes; A4: dense infiltration of monocytes, eosinophils, or giant cells.
B1: none; B2: collagen-rich layer around the implant; B3: thick (>1 mm) and dense collagen-rich tissue formation around the implant.
In every 10th serial section 10 fields of view uniformly distributed over the circumference of the implant were evaluated and the herein predominant expression was assigned to an event table. In total, 200 fields of view were analyzed per implant

The values below come from patent US20140099354A1, “BIOPASSIVATING MEMBRANE STABILIZATION BY MEANS OF NITROCARBOXYLIC ACID-CONTAINING PHOSPHOLIPIDS IN PREPARATIONS AND COATINGS” (priority 2011, published 2014).

Sequence of Glycophorin A (GpA) peptides (P02724 92-114 limits assumed, species assumed): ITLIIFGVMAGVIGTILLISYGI

For `CCCCCCCC/C=C(\CCCCCCCC(=O)OC[C@H](COP(=O)([O-])OCC[N+](C)(C)C)OC(=O)CCCCCCCCCCCCCCC)[N+](=O)[O-]` [Example Q, 1-(9-Nitrooleoyl)-2-(palmitoyl)-sn-3-glycero-phosphocholine], the “proportion of living cells relative to non-frozen control” value in the data set with sciatic nerve was 80%. The “mechanical removal of coating substance and workload to pull the catheter through PTFE tubing” value (“mechanical removal” for short) in data set [1] is given as “Very similar results”. The “rate of intact follicles relative to the control group” value with ovarian tissue strips [2] amounted to 96%. For the same compound, the “viability of adhering macrophages” value in [3] is listed as 95-98%.

`CCCCCCCC/C=C(\CCCCCCCC(=O)O[C@H](COC(=O)CCCCCCCCCCCCCCC)COP(=O)(O)OCCN)[N+](=O)[O-]` [Example S, 1-Palmitoyl-2-(E-9-nitrooleoyl)-sn-3-glycero-phosphatidylethanolamine]: in the data set with sciatic nerve, the “proportion of living cells relative to non-frozen control” value came to 85%. Further, the erythrocyte membrane stability result with Human red blood cells is reported as “very similar values as the nitrated phosphocholines”. The “inducible membrane channel activity of TRP channels” value (“inducible membrane channel activity” for short) in the data set with TRPV1, 2 and 4, TRPA1 was “significant decrease of inducible membrane channel activity”. Further, in [1], the “mechanical removal” value is reported as “Very similar results”.

With `CCCCCCCC/C=C(\CCCCCCCC(=O)O[C@H](COC(=O)CCCCCCCCCCCCCCCCC)COP(=O)([O-])OCC[N+](C)(C)C)[N+](=O)[O-]` [Example P14, 1-stearoyl-2-(E-9-nitrooleoyl)-sn-3-glycerophosphocholine], the entries for the “loss of viability of heart muscle cells after hypoxia” value in data set [4] ((10 minutes)) and in data set [4] ((30 minutes)) were 6% and 16%, respectively. In addition, the entries for the “mitochondrial NAD+ content” value in data set [4] (first printed value) and in [4] (second printed value) were 3.8 nmol/mg protein and 3.3 nmol/mg protein, respectively. In addition, the “degree of dimerization of the model membrane protein” value in data set [5] is “significantly greater reduction of dimerization”. For the same compound, the estradiol in the data set with ovarian tissue strips [6] was 8.6 ng/mL. Moreover, the progesterone with ovarian tissue strips [6] turned out to be 0.6 ng/mL. The “end of diastole (ED) cytosolic calcium” value amounted to 80 nmol/L in data set [7] (after hypoxia); 90 nmol/L in data set [7] (after hypoxia and stimulation with isoproterenol); 30 nmol/L in data set [7] (normoxic conditions). Besides, the “post systolic (PS) cytosolic calcium” value was determined as 40 nmol in data set [7] (after hypoxia) and 10 nmol in [7] (normoxic conditions). For the same compound, the “proportion of living cells relative to non-frozen control” value in the data set with sciatic nerve was found to be 86%. In addition, the “inducible membrane channel activity” value in the data set with TRPV1, 2 and 4, TRPA1 was “significant decrease of inducible membrane channel activity”. For the same compound, the “rate of intact follicles relative to the control group” value with ovarian tissue strips [2] turned out to be 96%. In addition, the “increase in LDH versus normoxemia culture” value in the data set on cortical neurons (10-minutes ischemia) was 120 fold; in the data set with cortical neurons (30-minutes ischemia), 230 fold. Besides, the “viability of cortical cells measured after 24 hours” value turned out to be 68% in the data set on cortical neurons (10-minutes ischemia) and 54% in the data set with cortical neurons (30-minutes ischemia). The “biocompatibility of coated implants compared to natural PLs” value in data set [8] is “improved biocompatibility of implants several-fold”.

Regarding `CCCCCCCCC=C(CCCCCCCC(=O)OC[C@H](COP(=O)(O)OC1C(O)C(O)C(O)C(O)C1O)OC(=O)CCCCCCCC(=CCCCCCCCC)[N+](=O)[O-])[N+](=O)[O-]` (stereo partly drawn) [Example F, 1,2-di-(9-nitrooleoyl)-sn-3-glycerophosphatidylinositol], the “proportion of living cells relative to non-frozen control” value with sciatic nerve came out at 88%. Moreover, in the data set with Human red blood cells, the erythrocyte membrane stability entry was “very similar values as the nitrated phosphocholines”. The “inducible membrane channel activity” value in the data set with TRPV1, 2 and 4, TRPA1 is recorded as “significant decrease of inducible membrane channel activity”. The “mechanical removal” value in [1] is “Very similar results”. For the same compound, the “biocompatibility of coated implants compared to natural PLs” value in [8] was “improved biocompatibility of implants several-fold”.
